Source: US10774064B2 (Cadent Therapeutics, Inc., priority 2016, dated 2020)

Target: T1, small-conductance Ca2+-activated K+ channels (SK channels, subtype 2) (Homo sapiens, UniProt Q9H2S1)
T1 construct: expressed in transfected cells; host or cells: HEK293
Test: whole-cell patch-clamp of ionic current through SK2 channels in HEK293 cells (SC100)
Type: cell-based
Settings: whole-cell patch-clamp, HEK293 cells expressing SK2 channels; concentration that increases the basal current by 100%
Summary of the method: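 SC100, the concentration doubling basal current (a 100% increase), was taken from SK2 currents recorded by whole-cell patch-clamp in SK2-expressing HEK293 cells.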

COC(=O)N1CC=C(c2cc(NC3CCC(F)(F)CC3)nc(-n3ccc(C)n3)c2)CC1 [IN11130-077-P1, methyl 2′-((4,4-difluorocyclohexyl)amino)-6′-(3-methyl-1H-pyrazol-1-yl)-3,6-dihydro-[4,4′-bipyridine]-1(2H)-carboxylate] was tested, and the “SC100 (μM)” value was “+ (+ means >1 uM)”.
In the case of Cc1csc(-c2nc(NC3CCC(F)(F)CC3)cc(C(C)n3cccn3)n2)n1 (centres unmarked) [IN11133-002-P1, 6-(1-(1H-pyrazol-1-yl)ethyl)-N-(4,4-difluorocyclohexyl)-2-(4-methylthiazol-2-yl)pyrimidin-4-amine], the “SC100 (μM)” value is reported as “+ (+ means >1 uM)”.
With COc1cc(NC2CC(F)(F)C2)nc(-c2nc(C)cs2)n1 [IN11133-014-P1] the “SC100 (μM)” value was “+ (+ means >1 uM)”.
In the case of Cc1csc(-c2nc(NC3CC(F)(F)C3)cc(OC3CCOCC3)n2)n1 [IN11133-020-P1, N-(3,3-difluorocyclobutyl)-2-(4-methylthiazol-2-yl)-6-((tetrahydro-2H-pyran-4-yl)oxy) pyrimidin-4-amine], the “SC100 (μM)” value is reported as “+ (+ means >1 uM)”.
With Cc1ccn(-c2nc(N[C@@H]3CCCC[C@H]3F)cc(N3CCOCC3)n2)n1 [IN11133-031-P1] the “SC100 (μM)” value was “+ (+ means >1 uM)”.
Cc1csc(-c2cc(CNC=O)cc(NC3CCC(F)(F)CC3)n2)n1 [IN11133-037-P1] was tested, and the “SC100 (μM)” value was “+++ (+++ means <200 nM)”.
For Cc1csc(-c2cc(CN)cc(NC3CCC(F)(F)CC3)n2)n1 [IN11133-049-P1, 4-(aminomethyl)-N-(4,4-difluorocyclohexyl)-6-(4-methylthiazol-2-yl)pyridin-2-amine], the “SC100 (μM)” value was “++ (++ means 200 nM-1000 nM)”.
Cc1csc(-c2cc(COC(N)=O)cc(NC3CCC(F)(F)CC3)n2)n1 [IN11133-061-P1, (2-((4,4-difluorocyclohexyl)amino)-6-(4-methylthiazol-2-yl)pyridin-4-yl)methyl carbamate] was tested, and the “SC100 (μM)” value was “+++ (+++ means <200 nM)”.
CC(=O)N(C)Cc1cc(NC2CCC(F)(F)CC2)nc(-c2nc(C)cs2)c1 [IN11133-068-P1] was tested, and the “SC100 (μM)” value was “++ (++ means 200 nM-1000 nM)”.
For Cc1csc(-c2cc(CN(C)C=O)cc(NC3CCC(F)(F)CC3)n2)n1 [IN11133-069-P1], the “SC100 (μM)” value was “+++ (+++ means <200 nM)”.
In the case of Cc1cc(NC2CCC(F)(F)CC2)nc(-n2ccc(OC(C)C)n2)n1 [IN11133-094-P1, N-(4,4-difluorocyclohexyl)-2-(3-isopropoxy-1H-pyrazol-1-yl)-6-methylpyrimidin-4-amine], the “SC100 (μM)” value is reported as “+ (+ means >1 uM)”.
OCc1cc(NC2CCC(F)(F)CC2)nc(-n2ccc(C(F)(F)F)n2)c1 [IN11133-097-P1, (2-((4,4-difluorocyclohexyl)amino)-6-(3-(trifluoromethyl)-1H-pyrazol-1-yl)pyridin-4-yl) methanol] was tested, and the “SC100 (μM)” value was “++ (++ means 200 nM-1000 nM)”.
With COc1cc(NC2CCCSC2)nc(-c2nc(C)cs2)n1 (centres unmarked) [IN11137-018-P1] the “SC100 (μM)” value was “+ (+ means >1 uM)”.
Cc1cc(NC2CCC(F)(F)CC2)nc(-c2cccc(C)n2)c1 [IN11137-041-P1, N-(4,4-difluorocyclohexyl)-4,6′-dimethyl-[2,2′-bipyridin]-6-amine] was tested, and the “SC100 (μM)” value was “+ (+ means >1 uM)”.
For CCc1cc(NC2CCC(F)(F)CC2)nc(-n2ccc(C3CC3)n2)n1 [IN11137-072-P1, 2-(3-cyclopropyl-1H-pyrazol-1-yl)-N-(4,4-difluorocyclohexyl)-6-ethylpyrimidin-4-amine], the “SC100 (μM)” value was “++ (++ means 200 nM-1000 nM)”.
In the case of OCc1cc(NC2CCC(F)(F)CC2)nc(-n2ccc(C3CC3)n2)n1 [IN11137-074-P1, (2-(3-cyclopropyl-1H-pyrazol-1-yl)-6-((4,4-difluorocyclohexyl)amino)pyrimidin-4-yl) methanol], the “SC100 (μM)” value is reported as “++ (++ means 200 nM-1000 nM)”.
For NC(=O)OCc1cc(N(C(N)=O)C2CCC(F)(F)CC2)nc(-n2ccc(C3CC3)n2)n1 [IN11137-079-P1, (2-(3-cyclopropyl-1H-pyrazol-1-yl)-6-(1-(4,4-difluorocyclohexyl)ureido)pyrimidin-4-yl)methyl carbamate], the “SC100 (μM)” value was “+ (+ means >1 uM)”.
In the case of Cc1cc(NC2CCC(F)(F)CC2)nc(-n2[nH]c(=O)cc2N)n1 [IN11140-007-P1, 5-amino-1-(4-((4,4-difluorocyclohexyl)amino)-6-methylpyrimidin-2-yl)-1,2-dihydro-3H-pyrazol-3-one], the “SC100 (μM)” value is reported as “+ (+ means >1 uM)”.
In the case of Cc1csc(-c2nc(N[C@@H]3CCCC[C@H]3O)cc(N3CCOCC3)n2)n1 [IN11140-058-P1], the “SC100 (μM)” value is reported as “+ (+ means >1 uM)”.
With Cc1ccn(-c2nc(NC3CCCCC3(F)F)cc(N3CCOCC3)n2)n1 (centres unmarked) [IN11140-062-P1] the “SC100 (μM)” value was “+ (+ means >1 uM)”.
In the case of COc1cc(NC2CCCCC2(F)F)nc(-c2nc(C)cs2)n1 (centres unmarked) [IN11140-063-P1], the “SC100 (μM)” value is reported as “+ (+ means >1 uM)”.
For Cc1csc(-c2nc(NC3CCCCC3=O)cc(N3CCOCC3)n2)n1 (centres unmarked) [IN11140-065-P1, 2-((2-(4-methylthiazol-2-yl)-6-morpholinopyrimidin-4-yl)amino)cyclohexan-1-one], the “SC100 (μM)” value was “+ (+ means >1 uM)”.
With Cc1csc(-c2nc(NC3CCCCC3(F)F)cc(N3CCOCC3)n2)n1 (centres unmarked) [IN11140-066-P1] the “SC100 (μM)” value was “+ (+ means >1 uM)”.
CC(=O)c1cc(NC2CCCCC2(F)F)nc(-c2nc(C)cs2)n1 (centres unmarked) [IN11140-081-P1, 1-(6-((2,2-difluorocyclohexyl)amino)-2-(4-methylthiazol-2-yl)pyrimidin-4-yl) ethan-1-one] was tested, and the “SC100 (μM)” value was “+ (+ means >1 uM)”.
In the case of Cc1csc(-c2nc(NC3CCCCC3(F)F)cc(C(C)O)n2)n1 (centres unmarked) [IN11140-083-P1, 1-(6-((2,2-difluorocyclohexyl)amino)-2-(4-methylthiazol-2-yl)pyrimidin-4-yl) ethan-1-ol], the “SC100 (μM)” value is reported as “+ (+ means >1 uM)”.
Cc1csc(-c2nc(N[C@@H]3CCCC[C@H]3F)cc(N3CCOCC3)n2)n1 [IN11140-086-P1] was tested, and the “SC100 (μM)” value was “+ (+ means >1 uM)”.
With Cc1csc(-c2nc(NC3CCCCC3(F)F)cc(C(C)F)n2)n1 (centres unmarked) [IN11140-089-P1, N-(2,2-difluorocyclohexyl)-6-(1-fluoroethyl)-2-(4-methylthiazol-2-yl)pyrimidin-4-amine] the “SC100 (μM)” value was “+ (+ means >1 uM)”.
With COc1cc(NC2CCCCC2OC)nc(-c2nc(C)cs2)n1 (centres unmarked) [IN11140-090-P1, 6-methoxy-N-(2-methoxycyclohexyl)-2-(4-methylthiazol-2-yl)pyrimidin-4-amine] the “SC100 (μM)” value was “+ (+ means >1 uM)”.
In the case of COc1cc(N[C@@H]2CCCC[C@H]2F)nc(-c2nc(C)cs2)n1 [IN11140-096-P1], the “SC100 (μM)” value is reported as “+ (+ means >1 uM)”.
For COC(C)c1cc(NC2CCCCC2(F)F)nc(-c2nc(C)cs2)n1 (centres unmarked) [IN11140-099-P1, N-(2,2-difluorocyclohexyl)-6-(1-methoxyethyl)-2-(4-methylthiazol-2-yl)pyrimidin-4-amine], the “SC100 (μM)” value was “+ (+ means >1 uM)”.
For COc1cc(NC2CCC(F)(F)CC2)nc(-c2nc(C)cs2)c1 [IN11146-013-P1], the “SC100 (μM)” value was “++ (++ means 200 nM-1000 nM)”.
With Cc1cc(C)n(-c2nc(N[C@@H]3CCCC[C@H]3F)cc(N3CCOCC3)n2)n1 [IN11146-016-P1] the “SC100 (μM)” value was “+ (+ means >1 uM)”.
Cc1csc(-c2nc(NC3CCC(F)(F)CC3)cc(OC3CC3)n2)n1 [IN11146-033-P1, 6-cyclopropoxy-N-(4,4-difluorocyclohexyl)-2-(4-methylthiazol-2-yl)pyrimidin-4-amine] was tested, and the “SC100 (μM)” value was “+ (+ means >1 uM)”.
In the case of Cc1cc(C)n(-c2cc(CO)cc(NC3CC(F)(F)C3)n2)n1 [IN11146-039-P1, (2-((3,3-difluorocyclobutyl)amino)-6-(3,5-dimethyl-1H-pyrazol-1-yl)pyridin-4-yl) methanol], the “SC100 (μM)” value is reported as “+ (+ means >1 uM)”.
In the case of Cc1ccn(-c2cc(OC3CCS(=O)(=O)CC3)cc(NC3CCC(F)(F)CC3)n2)n1 [IN11146-089-P1, 4-((2-((4,4-difluorocyclohexyl)amino)-6-(3-methyl-1H-pyrazol-1-yl)pyridin-4-yl)oxy)tetrahydro-2H-thiopyran 1,1-dioxide], the “SC100 (μM)” value is reported as “++ (++ means 200 nM-1000 nM)”.
For CSc1cc(NC2CCC(F)(F)CC2)nc(-c2nc(C)cs2)c1 [IN11147-026-P1, N-(4,4-difluorocyclohexyl)-6-(4-methylthiazol-2-yl)-4-(methylthio)pyridin-2-amine], the “SC100 (μM)” value was “+++ (+++ means <200 nM)”.
In the case of Cc1csc(-c2cc([S+](C)[O-])cc(NC3CCC(F)(F)CC3)n2)n1 (centres unmarked) [IN11147-031-P1, N-(4,4-difluorocyclohexyl)-4-(methylsulfinyl)-6-(4-methylthiazol-2-yl)pyridin-2-amine], the “SC100 (μM)” value is reported as “++ (++ means 200 nM-1000 nM)”.
With Cc1csc(-c2cc(S(C)(=O)=O)cc(NC3CCC(F)(F)CC3)n2)n1 [IN11147-036-P1, N-(4,4-difluorocyclohexyl)-4-(methylsulfonyl)-6-(4-methylthiazol-2-yl)pyridin-2-amine] the “SC100 (μM)” value was “+++ (+++ means <200 nM)”.
COc1cc(NC2CCC(F)(F)CC2)nc(-c2nc(C3CC3)cs2)n1 [IN11147-054-P1, 2-(4-cyclopropylthiazol-2-yl)-N-(4,4-difluorocyclohexyl)-6-methoxypyrimidin-4-amine] was tested, and the “SC100 (μM)” value was “++ (++ means 200 nM-1000 nM)”.
In the case of Cc1cc(NC2CCC(F)(F)CC2)nc(-c2nc(C3CC3)cs2)n1 [IN11147-062-P1, 2-(4-cyclopropylthiazol-2-yl)-N-(4,4-difluorocyclohexyl)-6-methylpyrimidin-4-amine], the “SC100 (μM)” value is reported as “+ (+ means >1 uM)”.
In the case of CC(O)c1cc(NC2CCC(F)(F)CC2)nc(-c2nc(C3CC3)cs2)n1 (centres unmarked) [IN11147-066-P1, 1-(2-(4-cyclopropylthiazol-2-yl)-6-((4,4-difluorocyclohexyl)amino)pyrimidin-4-yl) ethan-1-ol], the “SC100 (μM)” value is reported as “++ (++ means 200 nM-1000 nM)”.
